{"source": "patent US9790227B2", "about": "“2-methylsulphanyl-6-nitro-7-oxo-1, 2, 4-triazolo [5, 1-C] [1, 2, 4] triazinide L-arginine dihydrate active toward west nile virus” (LIMITED LIABILITY COMPANY “URAL CENTER OF BIOPHARMACEUTICAL …, priority 2013, dated 2017)", "key": {"cell culture GMK-AH (1D)": {"system": "cell culture GMK-AH (1D)", "experiment": "Evaluation of cytotoxicity in cell culture GMK-AH (1D)", "assay_type": "cell-based", "method": "Evaluation of the cytotoxicity of the test compound using a constant cell culture GMK-AH (1D).\nTo form a continuous monolayer, 1 ml of cell suspension with a density of 200 thousand/ml was added into each tubes and incubate at a temperature (37.0±0.5)° C., 5% CO2.\nThen the growth medium was removed and fresh medium containing various concentrations of test drugs (from 1000 to 6.25 µg/ml) was added. The tubes were then incubated for 5 days at a temperature (37.0+0.5)° C., 5% CO2.\nUsing a light microscope, the state of the monolayer cells was observed: partial or complete destruction of the monolayer cells, damage to individual cells, cell syncytium formation. Control samples were tubes with a monolayer, which included maintenance medium without a drug."}, "West Nile virus": {"system": "West Nile virus", "experiment": "Effectiveness in cell culture GMK-AH (1D) against West Nile virus", "assay_type": "cell-based", "method": "Monolayer of the cell culture GMK-AH (1D) was infected with West Nile virus in a dose of 0.05 PFU/cell. Virus was adsorbed at 37° C., 5% CO2, for 60 minutes. At the end of the incubation, the monolayer was washed three times with maintenance medium containing 100 u/ml penicillin and streptomycin to remove non-adsorbed virus, and test compounds were added at a concentration of ½ MIC. The substance was dissolved in maintenance medium to the desired concentration. For each compound, not less than 10 tubes with a monolayer of cells were used. Incubation was performed at 37° C., 5% CO2 for 48 hours. Next, the cryodestruction of cells was performed and the samples were combined. The infectious titer in the combined samples was determined by titration by forming negative colonies under the agar coating in the cell culture GMK-AH (1D)."}, "[1]": {"settings": "cytotoxicity, GMK-AH (1D), 5 days"}, "[2]": {"settings": "250.0 μg/ml (½ MIC), GMK-AH (1D), 0.05 PFU/cell, 48 hours"}}, "data": [{"smiles": "CSc1nc2[nH]nc([N+](=O)[O-])c(=O)n2n1", "note": "[Claimed compound, 2-methylsulfanyl-6-nitro-7-oxo-1,2,4-triazolo[5,1-c] [1,2,4]triazinid L-arginine dihydrate]", "values": [{"measurement": "The frequency of the cytopathic effect of the claimed compound", "setting": "cell culture GMK-AH (1D); concentration 7.8 mg/mL, GMK-AH (1D), 5 days", "value": "0/4"}, {"measurement": "The frequency of the cytopathic effect of the claimed compound", "setting": "cell culture GMK-AH (1D); concentration 15.5 mg/mL, GMK-AH (1D), 5 days", "value": "0/4"}, {"measurement": "The frequency of the cytopathic effect of the claimed compound", "setting": "cell culture GMK-AH (1D); concentration 31.3 mg/mL, GMK-AH (1D), 5 days", "value": "0/4"}, {"measurement": "The frequency of the cytopathic effect of the claimed compound", "setting": "cell culture GMK-AH (1D); concentration 62.5 mg/mL, GMK-AH (1D), 5 days", "value": "0/4"}, {"measurement": "The frequency of the cytopathic effect of the claimed compound", "setting": "cell culture GMK-AH (1D); concentration 250.0 mg/mL, GMK-AH (1D), 5 days", "value": "0/4"}, {"measurement": "The frequency of the cytopathic effect of the claimed compound", "setting": "cell culture GMK-AH (1D); concentration 500.0 mg/mL, GMK-AH (1D), 5 days", "value": "0/4"}, {"measurement": "The frequency of the cytopathic effect of the claimed compound", "setting": "cell culture GMK-AH (1D); concentration 1000.0 mg/mL, GMK-AH (1D), 5 days", "value": "2/4"}, {"measurement": "The frequency of the cytopathic effect of the claimed compound", "setting": "cell culture GMK-AH (1D); concentration 125,0 mg/mL, GMK-AH (1D), 5 days", "value": "0/4"}, {"measurement": "visible changes in the cell culture", "setting": "cell culture GMK-AH (1D); concentration of 500 μg/ml, GMK-AH (1D)", "value": "did not cause any visible changes"}, {"measurement": "toxicity in the concentrations used", "setting": "cell culture GMK-AH (1D); concluding statement", "value": "nontoxic"}, {"measurement": "½ MIC", "setting": "cell culture GMK-AH (1D); cytotoxicity, GMK-AH (1D)", "value": 250.0, "unit": "µg/mL"}, {"measurement": "MIC", "setting": "cell culture GMK-AH (1D); [1]", "value": 500.0, "unit": "µg/mL"}, {"measurement": "cytotoxic concentration", "setting": "cell culture GMK-AH (1D); [1]", "value": 1000.0, "unit": "µg/mL"}, {"measurement": "Level of the virus accumulation", "setting": "West Nile virus; [2]", "value": 4.2, "unit": "lg PFU/ml"}, {"measurement": "Reduction of the virus accumulation", "setting": "West Nile virus; [2]", "value": 2.3, "unit": "lg PFU/ml"}, {"measurement": "inhibiting factor", "setting": "West Nile virus; Table 2, GMK-AH (1D)", "value": 99.5, "unit": "%"}, {"measurement": "inhibits the reproduction of West Nile virus", "setting": "West Nile virus; Table 2, GMK-AH (1D)", "value": 2.31, "unit": "g"}, {"measurement": "antiviral activity in vitro against West Nile virus", "setting": "West Nile virus; concluding statement", "value": "significant antiviral activity"}]}]}
